Values after ≈ are worked out from the molar mass of the structure shown.
How the values were obtained:
[1] = test system: Zebrafish (Danio rerio) embryos; details: 5 days
[2] = target: T1, PknB (Mycobacterium tuberculosis, UniProt P9WI81); assay type: binding; details: DiscoverX Kd
Target sequence in this assay (P9WI81 whole entry): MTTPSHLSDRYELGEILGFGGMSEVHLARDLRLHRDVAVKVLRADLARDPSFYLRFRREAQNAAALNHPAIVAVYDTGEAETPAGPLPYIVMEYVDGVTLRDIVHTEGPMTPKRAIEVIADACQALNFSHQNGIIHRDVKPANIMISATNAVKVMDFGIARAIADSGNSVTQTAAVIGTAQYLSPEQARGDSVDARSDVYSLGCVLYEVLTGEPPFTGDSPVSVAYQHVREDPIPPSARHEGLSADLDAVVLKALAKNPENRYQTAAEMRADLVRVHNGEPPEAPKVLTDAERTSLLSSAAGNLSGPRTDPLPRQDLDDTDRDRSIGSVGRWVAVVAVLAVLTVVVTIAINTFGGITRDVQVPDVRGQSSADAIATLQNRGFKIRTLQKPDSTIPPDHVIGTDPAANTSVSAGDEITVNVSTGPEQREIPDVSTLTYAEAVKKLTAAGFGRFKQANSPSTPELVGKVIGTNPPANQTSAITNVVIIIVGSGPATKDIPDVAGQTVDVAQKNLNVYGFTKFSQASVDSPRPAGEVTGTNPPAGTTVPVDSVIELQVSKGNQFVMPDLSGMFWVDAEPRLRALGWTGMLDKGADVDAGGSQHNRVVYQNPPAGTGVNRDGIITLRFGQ

[3] = test system: M. tuberculosis strain, H37Ra (ATCC 25177); test: microbe, parasite or virus in culture; assay type: cell-based, Mycobacterium tuberculosis; details: for MIC: Mycobacterium tuberculosis, ATCC25177|H37RA, read-out: Mtb MIC
[4] = test system: 453 human kinases (403 wild-type and 50 mutant); assay type: binding; details: 10 μM, KinomeSCAN
[5] = physchem; details: pH 7.4, LogD7.4, pH 7.4
[6] = target: Cdk2-Cyclin A (Homo sapiens, UniProt P24941); test: biochemical; assay type: biochemical
[7] = target: T1, PknB; test: biochemical; assay type: biochemical
Target sequence in this assay (P9WI81 1-331 limits assumed): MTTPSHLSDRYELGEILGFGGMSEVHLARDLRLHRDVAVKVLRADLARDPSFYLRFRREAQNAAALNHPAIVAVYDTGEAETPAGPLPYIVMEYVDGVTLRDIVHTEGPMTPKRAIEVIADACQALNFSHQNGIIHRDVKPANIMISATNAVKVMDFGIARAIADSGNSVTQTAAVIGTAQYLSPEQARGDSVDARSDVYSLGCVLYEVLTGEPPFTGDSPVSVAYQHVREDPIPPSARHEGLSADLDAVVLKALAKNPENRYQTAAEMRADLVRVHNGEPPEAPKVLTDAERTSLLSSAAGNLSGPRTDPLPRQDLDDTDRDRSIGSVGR

[8] = target: T1, PknB; test: biochemical; assay type: binding
Target sequence in this assay (P9WI81 1-331 limits assumed): as above

[9] = test system: THP-1 human macrophage cell line

## CN1CCN(c2ccc(Nc3nccc(-c4ccnc(Cl)c4)n3)cc2C(F)(F)F)CC1 [Compound 6]
[1]
  % D. rario survival @ 5 μM: ~100%

## CN1CCN(c2ccc(Nc3nccc(-c4cccc([N+](=O)[O-])c4)n3)cc2C(F)(F)F)CC1 [Compound 19]
[2]
  affinity for PknB vs GSK3β, mTOR, and Pim1: > 100 fold
[3]
  MIC: ≤ 19 µM
[1]
  % D. rario survival @ 5 μM: 0%
[4]
  selectivity score (S-score) at 1% of control (S(1)): 0.12

## CN1CCN(c2ccc(Nc3nccc(-c4ccncc4)n3)cc2C(F)(F)F)CC1 [Compound 5]
[5]
  logD: 3.57
[6]
  IC50: 4600 nM
[7]
  IC50: 2100 nM
  Ki: 580 nM
[8]
  Kd: 78 nM
[3]
  worse Mtb MIC than 1: 2–4 fold
  MIC: 50 µM (≈ 20.7 µg/mL)
[1]
  % D. rario survival @ 5 μM: 30%

## CN1CCN(c2ccc(Nc3nccc(-c4ccccc4)n3)cc2C(F)(F)F)CC1 [Compound 9]
[6]
  reduction in Cdk2 biochemical inhibition relative to 1: greater than 28 fold
[1]
  % D. rario survival @ 5 μM: ~100%
[4]
  selectivity score (S-score) at 1% of control (S(1)): 0.084

## Cc1ccc(-c2ccnc(Nc3ccc(N4CCN(C)CC4)c(C(F)(F)F)c3)n2)cc1 [Compound 12]
[6]
  reduction in Cdk2 biochemical inhibition relative to 1: greater than 28 fold
[3]
  MIC: ≤ 19 µM
[1]
  % D. rario survival @ 5 μM: 0%

## CN1CCN(c2ccc(Nc3nccc(-c4ccc(Cl)cc4)n3)cc2C(F)(F)F)CC1 [Compound 11]
[6]
  reduction in Cdk2 biochemical inhibition relative to 1: greater than 28 fold

## CN1CCN(c2ccc(Nc3nccc(-c4ccc5ccccc5c4)n3)cc2C(F)(F)F)CC1 [Compound 20]
[9]; relative to 1
  improvement in THP-1 cytotoxicity relative to 1: > 60 fold
[7]
  loss in PknB activity relative to 19: 3 fold
[3]
  lower MIC than inhibitor 19: 2 fold
[1]
  % D. rario survival @ 5 μM: ~100%

## CN1CCN(c2ccc(Nc3nccc(-c4cccnc4)n3)cc2C(F)(F)F)CC1 [Compound 4]
[3]
  worse Mtb MIC than 1: 2–4 fold

## CNc1cc(-c2ccnc(Nc3ccc(N4CCN(C)CC4)c(C(F)(F)F)c3)n2)ccn1 [Compound 8]
[6]
  reduction in Cdk2 biochemical inhibition relative to 1: 28 fold
[7]; relative to 1
  loss of PknB activity relative to 1: 6 fold

## CN1CCN(c2ccc(Nc3nccc(-c4cccc(Cl)c4)n3)cc2C(F)(F)F)CC1 [Compound 16]
[9]; THP-1, relative to 1
  improvement in cytotoxicity over 1: > 2 log unit
[6]
  reduction in Cdk2 biochemical inhibition relative to 1: greater than 28 fold
[3]
  MIC: ≤ 19 µM
